Experimental data as given in patent US20250108038A1 (priority 2023, published 2025).
Where two headings read alike, the source gives them in different places.

What was measured:
Wistar rats = assay type: in vivo, Wistar rat; details: for % hit rate: nicotine 0.05-0.2 mg/kg sc, Compound I-4 0.1-3.0 mg/kg ip, Compound I-19 0.03-1.0 mg/kg ip; for % correct / Magazine Head Entries / Omissions / number of trials completed / perseverative responses / premature responses / response latencies (correct, incorrect) / reward latencies / timeout responses: same doses
Experimental: Animals were trained in eight automated 5C-SRTT operant chambers (Med Associates, St. Albans, VT, USA), controlled by MedPC software (Med Associates). Briefly, each operant chamber was equipped with 5 apertures containing a photocell beam to detect nose pokes and a lamp (2.8 W) that could be illuminated randomly at varying durations. Food pellets (45 mg chow pellet, BioServ, Frenchtown, NJ, USA) were delivered automatically to a magazine, located on the opposite wall to the nose pokes, that was also equipped with a light that turned on to indicate that a pellet had been dispensed. The house-light remained on for the entire session unless an error or omission occurred. Training sessions began with the delivery of a food reward and retrieval triggered the first trial. […] Training began with the stimulus duration set at 10 sec, a limited hold period of 5 sec and an ITI of 5 sec. […] Sessions ended when 40 minutes had lapsed or 100 trials had been completed.
Upon meeting the performance criteria, animals were assessed in the vSD version of the task where the following stimulus durations were presented in a pseudorandom manner: 0.3, 0.6 and 0.9 sec. Later, subjects were assessed in the vITI version where 2.5, 5.0 and 10.0 sec ITIs were employed in a pseudorandom manner. Performance parameters measured were: % hit ((# correct/(# correct+# incorrect including omissions))×100); % correct ((# correct/(# correct+# incorrect excluding omissions))×100); premature responses (# of nose-pokes into any aperture after trial initiation but before onset of the stimulus light); timeout responses (# of nose pokes into any aperture during a timeout period), perseverative responses (# of nose pokes occurring after the correct response had been made but before reward collection); # of food magazine head entries, omissions and total trials completed. The latency to correct response (time taken from the onset of the nose poke light stimulus to making the correct nose poke response), latency to incorrect response (time taken from onset of nose poke light stimulus to making the incorrect nose poke response), and latency to reward (i.e., the magazine latency, time taken from making a correct nose poke response to retrieving the reward from the magazine) was also recorded.
Drug doses and vehicle were administered in a pseudorandom fashion. Drug or vehicle sessions were performed 1-2 times per week with maintenance training (behavioral testing without drug or vehicle injections) interspersed.
All data were collated and entered into Microsoft Excel spreadsheets. The data were subsequently imported into StatView 5.0 for statistical analyses. One and two factor analysis of variance (ANOVA) tests were used with repeated measures when indicated, followed by Fisher LSD or Student Newman Keuls as post-hoc tests. All results were expressed as the mean (±S.E.M.). Differences between means from experimental groups were considered significant at the p<0.05 level. The statistical F values and degrees of freedom associated with the two factor ANOVA analyses are provided in the text of this report. Please refer to the statistical reports in the appendices for the values associated with one factor ANOVAs for the overall means and overall total values.

OCT2 = target: T1, OCT2 (Homo sapiens, UniProt O15244); test: Uptake transporter inhibition assay, OCT2 (metformin)
T1 sequence (O15244 1-555): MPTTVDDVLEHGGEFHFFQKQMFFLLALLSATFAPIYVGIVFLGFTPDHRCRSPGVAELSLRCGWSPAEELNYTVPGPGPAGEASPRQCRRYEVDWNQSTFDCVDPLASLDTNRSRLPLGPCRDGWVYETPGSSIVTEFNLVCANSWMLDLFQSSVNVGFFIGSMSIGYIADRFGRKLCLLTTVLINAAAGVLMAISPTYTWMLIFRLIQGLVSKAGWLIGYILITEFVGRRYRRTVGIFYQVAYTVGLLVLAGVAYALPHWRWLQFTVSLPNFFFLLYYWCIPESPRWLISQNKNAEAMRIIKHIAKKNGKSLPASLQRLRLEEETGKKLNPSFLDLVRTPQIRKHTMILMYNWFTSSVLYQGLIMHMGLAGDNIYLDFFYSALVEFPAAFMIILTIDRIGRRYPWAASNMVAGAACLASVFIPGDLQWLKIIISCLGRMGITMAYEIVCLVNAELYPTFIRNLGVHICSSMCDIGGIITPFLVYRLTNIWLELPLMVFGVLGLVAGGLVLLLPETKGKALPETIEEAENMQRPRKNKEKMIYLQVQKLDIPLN
Experimental: Uptake experiments were performed using HEK293 cells stably expressing the respective uptake transporters. The assays were conducted according to the actual SOLVO uptake transporter assay protocols (PR-ASY-UPT-General Protocol for Uptake Transporter Inhibition Assays).
Cells were cultured at 37° C. in a humidified atmosphere containing 5% CO2 and were plated onto standard 96-well tissue culture plates.
Before the experiment, the medium was removed, and the cells were washed twice with 100 μL of pre-warmed (37° C.) assay buffer listed in Table 15. The cells were pre-incubated at 37° C. for 30 minutes in assay buffer containing the test article at appropriate concentrations (Table 16), appropriate solvents for solvent controls and the reference inhibitor for reference inhibitor wells. After the pre-incubation step solutions were removed. Uptake experiments were performed at 37° C. in 50 μL of assay buffer containing the probe substrate and the test article or solvent and controls.
After the experiment, cells were washed twice with 100 μL of appropriate cold buffer and lysed with 150 μL scintillation cocktail. Radiolabeled probe substrate transport was determined by liquid scintillation counting.
Uptake of the probe substrate in control cells provided background activity values for all data points.

[1] = 0.04 μM nominal, metformin, IC50 determination, Table 124
[2] = 0.12 μM nominal, metformin, IC50 determination, Table 124
[3] = 1.11 μM nominal, metformin, IC50 determination, Table 124
[4] = 3.00 μM nominal, metformin, Table 123
[5] = 10.00 μM nominal, metformin, IC50 determination, Table 124
[6] = 30.00 μM nominal, metformin, IC50 determination, Table 124
[7] = 30.00 μM nominal, metformin, Table 123
[8] = 0.14 μM nominal, 0.09 μM NSB corrected, follow-up assay
[9] = 1.24 μM nominal, 0.86 μM NSB corrected, follow-up assay
[10] = 10.00 μM nominal, 6.60 μM NSB corrected
[11] = 11.11 μM nominal, 7.89 μM NSB corrected, follow-up assay
[12] = 33.33 μM nominal, 24.33 μM NSB corrected, follow-up assay
[13] = 100.00 μM nominal, 77.00 μM NSB corrected
[14] = 100.00 μM nominal, 100.00 μM NSB corrected, follow-up assay
[15] = […] nominal, 1.89 μM NSB corrected, follow-up assay

## COCCOC1(c2ccc(Cl)cc2)c2ccccc2C2=NCCN21 (centres unmarked) [Compound I-4]
Wistar rats
  % hit rate: decrease in the % hit rate
  % correct: no statistically significant dose-related effects
  Magazine Head Entries: decreases in the number of premature responses, timeout responses, and magazine head entries
  Omissions: increase in the number of omissions
  number of trials completed: decreases in the number of trials completed
  perseverative responses: no statistically significant effects on perseverative responses
  premature responses: the higher 3 doses of Compound I-4 were associated with a decrease
  response latencies (correct, incorrect): increases in the response latencies
  reward latencies: some increases in the reward latencies, but they were not statistically significant
  timeout responses: decreases in the number of premature responses, timeout responses, and magazine head entries

## OC1(c2ccc(Cl)cc2)c2ccccc2C2=NCCN21 (centres unmarked) [Compound A, 5-(4-chlorophenyl)-2,3-dihydroimidazo[1,2-b]isoindol-5-ol, reference compound]
OCT2
  IC50: 3.49 µM
OCT2; [1]
  Relative transporter specific accumulation: 109.28 ± 6.45 % of control
  Transporter specific accumulation: 259.00 ± 13.36 cpm
OCT2; [2]
  Relative transporter specific accumulation: 106.33 ± 3.85 % of control
  Transporter specific accumulation: 252.00 ± 5.57 cpm
OCT2; [3]
  Relative transporter specific accumulation: 84.39 ± 4.06 % of control
  Transporter specific accumulation: 200.00 ± 7.72 cpm
OCT2; [4]
  Relative transporter specific accumulation: 51.42 ± 3.71 % of control
  Transporter specific accumulation: 150.67 ± 6.96 cpm
OCT2; [5]
  Relative transporter specific accumulation: 25.88 ± 3.39 % of control
  Transporter specific accumulation: 61.33 ± 7.84 cpm
OCT2; [6]
  Relative transporter specific accumulation: 9.42 ± 0.99 % of control
  Transporter specific accumulation: 22.33 ± 2.26 cpm
OCT2; [7]
  Relative transporter specific accumulation: 13.54 ± 1.38 % of control
  Transporter specific accumulation: 39.67 ± 3.38 cpm
OCT2; human, Maximum % inhibition, OCT2, HEK293 cells, metformin (10 μM), NIO: no inhibition observed
  inhibition at 10 µM: 91%
OCT2; human, Relative Inhibition, 0.04 μM nominal, metformin, IC50 determination, Table 124
  inhibition at 0.04 μM: -9%
OCT2; human, Relative Inhibition, 0.12 μM nominal, metformin, IC50 determination, Table 124
  inhibition at 0.12 μM: -6%
OCT2; human, Relative Inhibition, 1.11 μM nominal, metformin, IC50 determination, Table 124
  inhibition at 1.11 μM: 16%
OCT2; human, Relative Inhibition, 10.00 μM nominal, metformin, IC50 determination, Table 124
  inhibition at 10 µM: 74%
OCT2; human, Relative Inhibition, 30.00 μM nominal, metformin, IC50 determination, Table 124
  inhibition at 30 μM: 91%
OCT2; human, Relative inhibition, 3.00 μM nominal, metformin, Table 123
  inhibition at 3 μM: 49%
OCT2; human, Relative inhibition, 30.00 μM nominal, metformin, Table 123
  inhibition at 30 μM: 86%

## Clc1ccc(C2(OCC3OCCO3)c3ccccc3C3=NCCN32)cc1 (centres unmarked) [Compound I-19]
OCT2; [8]
  Relative inhibition: 1%
  Relative transporter specific accumulation: 98.93 ± 6.26 % of control
  Transporter specific accumulation: 339.33 ± 6.18 cpm
OCT2; [9]
  Relative inhibition: 19%
  Relative transporter specific accumulation: 81.44 ± 5.58 % of control
  Transporter specific accumulation: 279.33 ± 8.96 cpm
OCT2; [10]
  Relative inhibition: 69%
  Relative transporter specific accumulation: 30.61 ± 3.54 % of control
  Transporter specific accumulation: 126.00 ± 14.46 cpm
OCT2; [11]
  Relative inhibition: 60%
  Relative transporter specific accumulation: 39.65 ± 3.63 % of control
  Transporter specific accumulation: 136.00 ± 9.32 cpm
OCT2; [12]
  Relative inhibition: 87%
  Relative transporter specific accumulation: 12.63 ± 3.35 % of control
  Transporter specific accumulation: 43.33 ± 11.20 cpm
OCT2; [13]
  Relative inhibition: 98%
  Relative transporter specific accumulation: 1.78 ± 0.65 % of control
  Transporter specific accumulation: 7.33 ± 2.67 cpm
OCT2; [14]
  Relative inhibition: 97%
  Relative transporter specific accumulation: 3.16 ± 1.38 % of control
  Transporter specific accumulation: 10.83 ± 4.69 cpm
OCT2; 2-concentration assay, 100 μM (Compound A 30 μM)
  maximum inhibition of OCT2-mediated metformin accumulation: 98%
OCT2; OCT2, HEK293 cells, metformin (10 μM), NIO: no inhibition observed
  Maximum % inhibition: 97%
OCT2; [15]
  Relative inhibition: 29%
  Relative transporter specific accumulation: 70.94 ± 7.30 % of control
  Transporter specific accumulation: 243.33 ± 20.22 cpm
OCT2; follow-up assay
  maximum inhibition of OCT2-mediated metformin accumulation: 97%
OCT2; follow-up assay, NSB-corrected concentrations for Compound I-19
  IC50: 8.95 µM
Wistar rats
  % hit rate: dose-dependent decrease in the % hit rate
  % correct: no statistically significant dose-related effects
  Magazine Head Entries: decreased in a dose-dependent manner
  Omissions: increase in the number of omissions
  number of trials completed: decreases in the number of trials completed
  perseverative responses: very modest reduction in the number of perseverative responses
  premature responses: decrease in the number of premature responses
  response latencies (correct, incorrect): very modest increases in the response latencies
  reward latencies: some increases in the reward latencies, but they were not statistically significant
  timeout responses: decrease in the number of premature responses, timeout responses, magazine head entries, and perseverative responses
